The subject of one assay is hypoxia-inducible endogenous VEGF expression. The assay can be described thus: Hypoxia-inducible endogenous VEGF expression ELISA in HeLa cells, dose-response EC50 (Table 3). The format is cell-based, human. Particulars: HeLa cells, hypoxic conditions (1% O2), 24-48 hours, VEGF in conditioned media; read-out: ELISA EC50. A digest of the protocol:
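HeLa cells kept 24-48 h under hypoxia (1% O2, 5% CO2, nitrogen balance) with or without compound, e.g. seven concentrations; secreted VEGF in conditioned medium quantified by ELISA against a standard curve. Parallel Cell Titer Glo viability under identical conditions excludes cytotoxicity.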
For orientation: In an ELISA, binding on a coated surface is turned into a signal by an enzyme label.
As to `C=CCOc1ccc(C2c3[nH]c4ccc(Cl)cc4c3CCN2C(=O)Oc2ccc(Cl)cc2)cc1` (stereo not drawn) [Compound 400], the EC50 (in general, the concentration giving half of the maximal effect) is below 0.008 µM.

The same assay, now with this note: Homo sapiens, HeLa, read-out: ELISA EC50 μM.
With `O=C(CN1CCOCC1)Nc1ccc(C2c3[nH]c4ccc(Cl)cc4c3CCN2C(=O)Oc2ccc(Cl)cc2)cc1` (stereo not drawn) [Compound 454], the EC50 was 0.008 to 0.04 µM.

With `O=C(Oc1ccc(Cl)cc1)N1CCc2c([nH]c3ccc(Cl)cc23)C1c1ccc(OCC(O)CN2CCCC2)cc1` (stereo not drawn) [Compound 462], the EC50 is 0.008 to 0.04 µM. Regarding `CC(=O)N1CCN(CCCOc2cccc(C3c4[nH]c5ccc(Cl)cc5c4CCN3C(=O)Oc3ccc(F)cc3)c2)CC1` (stereo not drawn) [Compound 1364], the EC50 was 0.04 to 0.2 µM. For the compound `CC(=O)N1CCN(CC(O)COc2ccc(C3c4[nH]c5ccc(Cl)cc5c4CCN3C(=O)Oc3ccc(F)cc3)cc2)CC1` (stereo not drawn) [Compound 637], the concentration giving a half-maximal response (EC50) was below 0.008 µM. On to `O=C(Oc1ccc(Cl)cc1)N1CCc2c([nH]c3ccc(Cl)cc23)[C@@H]1c1ccc(OCCCNCCO)cc1` [Compound 1257], for which the EC50 is 0.008 to 0.04 µM. `COc1cc(C2c3[nH]c4ccc(Cl)cc4c3CCN2C(=O)Oc2ccc(Cl)cc2)ccc1OCCCN1CCOCC1` (stereo not drawn) [Compound 1093]: the concentration giving a half-maximal response (EC50) was 0.008 to 0.04 µM. With `COCCCNCCCCOc1ccc(C2c3[nH]c4ccc(Cl)cc4c3CCN2C(=O)Oc2ccc(Cl)cc2)cc1` (stereo not drawn) [Compound 701], the 50% effective concentration (EC50) fell in the range of 0.008 to 0.04 µM. `CN1CCN(CCCCCCOc2ccc(C3c4[nH]c5ccc(Cl)cc5c4CCN3C(=O)Oc3ccc(F)cc3)cc2)CC1` (stereo not drawn) [Compound 778]: the EC50 is below 0.008 µM. On to `O=C(Oc1ccc(Cl)cc1)N1CCc2c([nH]c3ccc(Cl)cc23)C1c1ccc(OCCCCCCNCCO)cc1` (stereo not drawn) [Compound 782], for which the EC50 is below 0.008 µM. In the case of `CN1CCN(Cc2cnc(Oc3ccc([C@H]4c5[nH]c6ccc(Cl)cc6c5CCN4C(=O)Oc4ccc(Cl)cc4)cc3)s2)CC1` [Compound 1661], the EC50 was below 0.008 µM. Same read-out and setting: next, `O=C(Oc1ccc(F)cc1)N1CCc2c([nH]c3ccc(Cl)cc23)C1c1cccc(OCCCN2CCSCC2)c1` (stereo not drawn) [Compound 1117]: 0.008 to 0.04 µM.

In the case of `O=C(Oc1ccc(Cl)cc1)N1CCc2c([nH]c3ccc(Cl)cc23)C1c1ccc(OCCCN2CCC(CO)C2)cc1` (stereo not drawn) [Compound 1098], the EC50 is 0.008 to 0.04 µM.

The assay is the same for the next values; noted with them: Homo sapiens; HeLa cells, hypoxic conditions (1% O2), 24-48 hours, VEGF in conditioned media; read-out: ELISA EC50.
As for `O=C(Oc1ccc(F)cc1)N1CCc2c([nH]c3ccc(Cl)cc23)C1c1cccc(OCCCn2cncn2)c1` (stereo not drawn) [Compound 1155], the concentration giving a half-maximal response (EC50) lay within 0.04 to 0.2 µM.

For the compound `COCCOCCOc1ccc(C2c3[nH]c4ccc(Cl)cc4c3CCN2C(=O)Oc2ccc(C)cc2)cc1` (stereo not drawn) [Compound 677], the EC50 lay in the range of 0.008 to 0.04 µM. Still for that read-out and setting: next, `C=CCOc1ccc(C2c3[nH]c4ccc(Cl)cc4c3CCN2C(=O)Oc2ccccc2)cc1` (stereo not drawn) [Compound 413]: below 0.008 µM. For `N#Cc1ccc(C2c3[nH]c4ccc(Cl)cc4c3CCN2C(=O)Oc2ccc(Cl)cc2)cc1` (stereo not drawn) [Compound 350], the EC50 is below 0.008 µM. Take `O=C(Oc1ccc(F)cc1)N1CCc2c([nH]c3ccc(Cl)cc23)C1c1ccc(OCCNc2nccs2)cc1` (stereo not drawn) [#837]: the concentration for a half-maximal effect (EC50) was below 0.008 µM. For the compound `C=CCOc1ccc(C2c3[nH]c4ccc(Cl)cc4c3CCN2C(=O)Oc2ccc(Cl)cc2)cc1` (stereo not drawn) [Compound 999], the EC50 was below 0.008 µM. For the compound `COc1ccc(OC(=O)N2CCc3c([nH]c4ccc(Cl)cc34)C2c2ccc(OCCCn3cncn3)cc2)cc1` (stereo not drawn) [Compound 888], the half-maximal effective concentration (EC50) is below 0.008 µM. As to `O=C(Oc1ccc(Br)cc1)N1CCc2c([nH]c3ccc(Cl)cc23)C1c1ccc(OCC(O)CO)cc1` (stereo not drawn) [Compound 630], the concentration giving a half-maximal response (EC50) is below 0.008 µM. For the compound `CC(=O)NCC(CCOc1ccc([C@H]2c3[nH]c4ccc(Cl)cc4c3CCN2C(=O)Oc2ccc(Cl)cc2)cc1)OC(C)=O` (stereo partly drawn) [Compound 1277], the EC50 is below 0.008 µM. As for `COc1ccc(C2c3[nH]c4ccc(Cl)cc4c3CCN2C(=O)Oc2ccc(C)cc2)cc1` (stereo not drawn) [Compound 17], the EC50 was below 0.008 µM. As to `O=C(Oc1ccc(F)cc1)N1CCc2c([nH]c3ccc(Cl)cc23)C1c1ccc(OCCCCn2ccnc2)cc1` (stereo not drawn) [Compound 742], the half-maximal effective concentration (EC50) was below 0.008 µM. For `COCCOCCOc1ccc(C2c3[nH]c4ccc(Cl)cc4c3CCN2C(=O)Oc2ccc(OC)cc2)cc1` (stereo not drawn) [Compound 678], the EC50 lay within 0.04 to 0.2 µM.

Consider `O=C(Oc1ccc(F)cc1)N1CCc2c([nH]c3ccc(Cl)cc23)[C@@H]1c1ccc(OCC[C@H](O)CO)cc1` [Compound 1293], for which the EC50 was below 0.008 µM. Still for that read-out and setting: under `COc1ccc(OC(=O)N2CCc3c([nH]c4ccc(Br)cc34)[C@@H]2c2ccc(Cl)cc2)cc1` [#332] stands above 1 µM; under `CC1(COc2ccc([C@H]3c4[nH]c5ccc(Cl)cc5c4CCN3C(=O)Oc3ccc(Cl)cc3)cc2)COC(C)(C)OC1` [Compound 1229], below 0.008 µM. `COCC(=O)NCC(O)CCOc1ccc([C@H]2c3[nH]c4ccc(Cl)cc4c3CCN2C(=O)Oc2ccc(C)cc2)cc1` (stereo partly drawn) [Compound 1301]: the EC50 fell in the range of 0.008 to 0.04 µM. As for `O=C(Oc1ccc(F)cc1)N1CCc2c([nH]c3ccc(Cl)cc23)C1c1ccc(OCCCn2nccn2)cc1` (stereo not drawn) [Compound 1017], the half-maximal effective concentration (EC50) was below 0.008 µM. As for `COCCOCCOc1ccc(C2c3[nH]c4ccc(Cl)cc4c3CCN2C(=O)Oc2ccc([N+](=O)[O-])cc2)cc1` (stereo not drawn) [Compound 681], the concentration for a half-maximal effect (EC50) is 0.008 to 0.04 µM. Same read-out and setting: under `Cc1ccc(OC(=O)N2CCc3c([nH]c4ccc(Cl)cc34)C2c2ccc(OCC[C@H]3COC(C)(C)O3)cc2)cc1` (stereo partly drawn) [Compound 1170] stands below 0.008 µM. Regarding `COc1ccc(C2c3[nH]c4ccc(Cl)cc4c3CCN2C(=O)Oc2ccc(C)cc2)c(F)c1` (stereo not drawn) [Compound 1266], the EC50 is below 0.008 µM. With `O=C(Oc1ccc(Cl)cc1)N1CCc2c([nH]c3ccc(Cl)cc23)C1c1ccc(OCC2OCCO2)cc1` (stereo not drawn) [Compound 1053], the EC50 is below 0.008 µM. As for `O=C(Oc1ccccc1Cl)N1CCc2c([nH]c3ccc(Cl)cc23)C1c1ccc(OCCCn2cncn2)cc1` (stereo not drawn) [Compound 926], the EC50 was below 0.008 µM. Regarding `COc1ccc(C2c3[nH]c4ccc(Cl)cc4c3CCN2C(=O)Oc2ccc(C)cc2)cc1F` (stereo not drawn) [Compound 1196], the half-maximal effective concentration (EC50) fell in the range of 0.008 to 0.04 µM.

Still in this assay, the particulars now being: Homo sapiens; HeLa cells, hypoxic conditions (1% O2), VEGF ELISA of conditioned media; read-out: ELISA EC50.
In the case of `Cc1ccc(OC(=O)N2CCc3c([nH]c4ccc(Cl)cc34)[C@@H]2c2ccc(OCCC(O)CNS(=O)(=O)C3CC3)cc2)cc1` (stereo partly drawn) [Compound 1647], the EC50 was below 0.008 µM. Same read-out and setting: under `Cc1cc(N)nn1CCOc1ccc(C2c3[nH]c4ccc(Cl)cc4c3CCN2C(=O)Oc2ccc(Cl)cc2)cc1` (stereo not drawn) [Compound 1418] stands 0.008 to 0.04 µM. For `O=C(Oc1ccc(Cl)cc1)N1CCc2c([nH]c3ccc(Cl)cc23)[C@@H]1c1ccc(OC2CCN(c3ncccn3)CC2)cc1` [Compound 1681], the half-maximal effective concentration (EC50) was below 0.008 µM.

With `O=C(Oc1ccc(F)cc1)N1CCc2c([nH]c3ccc(Br)cc23)C1c1ccc(OCC[C@H](O)CO)cc1` (stereo partly drawn) [Compound 1348], the EC50 was below 0.008 µM. On the same count and under the same terms, under `C[Si](C)(C)CCS(=O)(=O)N1CCC(Oc2ccc(C3c4[nH]c5ccc(Cl)cc5c4CCN3C(=O)Oc3ccc(F)cc3)cc2)CC1` (stereo not drawn) [Compound 1580] stands below 0.008 µM; under `O=C(Oc1ccc(Cl)cc1)N1CCc2c([nH]c3ccc(Cl)cc23)C1c1ccc(OCCNc2ncncn2)cc1` (stereo not drawn) [Compound 1442], below 0.008 µM; under `NC(=O)c1cn(CCOc2ccc(C3c4[nH]c5ccc(Cl)cc5c4CCN3C(=O)Oc3ccc(F)cc3)cc2)nc1N` (stereo not drawn) [Compound 1416], 0.04 to 0.2 µM. The same measure, in the same setting: under `CCOC(=O)NC[C@@H](O)COc1ccc([C@H]2c3[nH]c4ccc(Cl)cc4c3CCN2C(=O)Oc2ccc(F)cc2)cc1` [Compound 1664] stands below 0.008 µM; under `N#Cc1cn(CCOc2ccc(C3c4[nH]c5ccc(Cl)cc5c4CCN3C(=O)Oc3ccc(Cl)cc3)cc2)nc1N` (stereo not drawn) [Compound 1421], below 0.008 µM.

The values above are taken from patent US20120157401A1, “METHODS FOR TREATING NEUROFIBROMATOSIS” (PTC Therapeutics, Inc., priority 2009, published 2012).
